Results taken from patent US5021421A, “2-(1-Piperazinyl)-4-phenylcycloalkanopyridine derivatives, processes for the production thereof, and pharmaceutical composition containing the same” (Dainippon Pharmaceutical Co., Ltd., priority 1989, dated 1991).
Where a name gives a salt, the structure may show the parent alone. Read-outs that look alike come from different tables or passages of the source.

Columns and labels:
[1] = system: brain monoamine metabolites; test: Increasing effect on concentration of brain monoamine metabolites; format: in vivo, mice (Std-ddy strain); conditions: Mus musculus, 2 h, non-dosed=100
Description: A group of 5 male mice (Std-ddy strain, 25-30 g) was used for examining effect of the test compounds on concentration of brain monoamine metabolites.
Mice were killed by decapitation 2 hours after treatment with the test compounds. Brains were quickly taken out, homogenized in 1N formic acid-acetone solution, and centrifuged in a refrigerated ultracentrifuge. The supernatant was evaporated by blowing with N2 gas. Then, the residue was again resolved in 0.01 N acetic acid, and served for determining concentration of dopamine metabolites, 3,4-dihydroxyphenylacetic acid (DOPAC) and homovanillic acid (HVA), a norepinephrine metabolite, 3-methyl-4-hydroxyphenylethylene glycol (MOPEG), and a serotonin metabolite, 5-hydroxyindole-3-acetic acid (5-HIAA) concentrations by HPLC with electrochemical detection. The effect of the test compounds on concentration of each monoamine metabolite is shown as % of control (level of non-dosed animals=100) in Table 4.

[2] = system: apomorphine-induced vomiting; test: Antagonistic effect on apomorphine-induced vomiting; format: in vivo, dogs (Beagle); conditions: Canis lupus familiaris, sc, apomorphine 0.3 mg/kg s.c. 2 h after compound, read-out: Inhibitory ratio (apomorphine-induced vomiting)
Description: A group of 3-4 dogs (Beagle, 8-15 kg) was used for examining effects on the test compounds on apomorphine-induced vomiting, a known test for evaluating neuroleptic drugs.
Each dog was given a subcutaneous injection of apomorphine hydrochloride (0.3 mg/kg) two hours after the treatment of the test compounds. Then, the frequency of oral vomiting was counted for one hour. The mean counts of the compound-treated group were compared with those of the corresponding control (non-dosed) group, and the percent inhibition was calculated.

[3] = read-out: 5-HIAA concentration, % of control
[4] = read-out: DOPAC concentration, % of control
[5] = read-out: HVA concentration, % of control
[6] = read-out: MOPEG concentration, % of control

OCCN1CCN(c2cc(-c3ccccc3)c3c(n2)CCCCC3)CC1 [Example 24]
response vs control in vivo at 10 mg/kg [1, 3]: 150% | response vs control in vivo at 10 mg/kg [1, 4]: 290% | response vs control in vivo at 10 mg/kg [1, 5]: 317% | response vs control in vivo at 10 mg/kg [1, 6]: 139%

OCCN1CCN(c2cc(-c3ccc(F)cc3)c3c(n2)CCCCC3)CC1 [Example 26]
response vs control in vivo at 10 mg/kg [1, 4]: 344% | response vs control in vivo at 10 mg/kg [1, 5]: 263%

CCN1CCN(c2cc(-c3cccc(F)c3)c3c(n2)CCCCC3)CC1 [Example 27]
inhibition in vivo at 3 mg/kg [2]: 47% | response vs control in vivo at 10 mg/kg [1, 4]: 208% | response vs control in vivo at 10 mg/kg [1, 5]: 193%

CCN1CCN(c2cc(-c3ccccc3F)c3c(n2)CCCCC3)CC1 [Example 29]
inhibition in vivo at 3 mg/kg [2]: 63% | response vs control in vivo at 10 mg/kg [1, 4]: 296% | response vs control in vivo at 10 mg/kg [1, 5]: 274%

Cc1ccc(-c2cc(N3CCN(CCO)CC3)nc3c2CCCCC3)cc1 [Example 35]
response vs control in vivo at 10 mg/kg [1, 4]: 165% | response vs control in vivo at 10 mg/kg [1, 5]: 170%

OCCN1CCN(c2cc(-c3ccc(F)cc3)c3c(n2)CCCCCC3)CC1 [Example 37, 2-[4-(2-Hydroxyethyl)-1-piperazinyl]-4-(4-fluorophenyl)-5,6,7,8,9,10-hexahydrocycloocta[b]pyridine]
inhibition in vivo at 0.3 mg/kg ([2]; dose 0.3 mg/kg): 80% | response vs control in vivo at 3 mg/kg [1, 3]: 95% | response vs control in vivo at 3 mg/kg [1, 4]: 268% | response vs control in vivo at 3 mg/kg [1, 5]: 203% | response vs control in vivo at 3 mg/kg [1, 6]: 143%

Fc1ccc(-c2cc(N3CCN(C4CCCCC4)CC3)nc3c2CCCCCC3)cc1 [Example 39]
response vs control in vivo at 10 mg/kg [1, 3]: 97% | response vs control in vivo at 10 mg/kg [1, 4]: 307% | response vs control in vivo at 10 mg/kg [1, 5]: 233% | response vs control in vivo at 10 mg/kg [1, 6]: 117%

CCN1CCN(c2cc(-c3cccc(F)c3)c3c(n2)CCCCCC3)CC1 [Example 42]
response vs control in vivo at 10 mg/kg [1, 4]: 258% | response vs control in vivo at 10 mg/kg [1, 5]: 211%

CCN1CCN(c2cc(-c3ccccc3F)c3c(n2)CCCCCC3)CC1 [Example 43]
inhibition in vivo at 1 mg/kg [2]: 96%

CCN1CCN(c2cc(-c3ccc(Cl)cc3)c3c(n2)CCCCCC3)CC1 [Example 44]
response vs control in vivo at 10 mg/kg [1, 4]: 272% | response vs control in vivo at 10 mg/kg [1, 5]: 210%

CCN1CCN(c2cc(-c3cccc(Cl)c3)c3c(n2)CCCCCC3)CC1 [Example 46]
response vs control in vivo at 10 mg/kg [1, 4]: 296% | response vs control in vivo at 10 mg/kg [1, 5]: 235%

CCN1CCN(c2cc(-c3ccc(OC)cc3)c3c(n2)CCCCCC3)CC1 [Example 49, 2-(4-Ethyl-1-piperazinyl)-4-(4-methoxyphenyl)-5,6,7,8,9,10-hexahydrocycloocta[b]pyridine]
response vs control in vivo at 10 mg/kg [1, 4]: 197% | response vs control in vivo at 10 mg/kg [1, 5]: 195%

Cc1ccc(-c2cc(N3CCN(CCO)CC3)nc3c2CCCCCC3)cc1 [Example 52]
response vs control in vivo at 10 mg/kg [1, 4]: 233% | response vs control in vivo at 10 mg/kg [1, 5]: 216%

CCN1CCN(c2cc(-c3ccc(F)c(F)c3)c3c(n2)CCCCCC3)CC1 [Example 54]
response vs control in vivo at 2 mg/kg [1, 4]: 251% | response vs control in vivo at 2 mg/kg [1, 5]: 250%

CCN1CCN(c2cc(-c3c(F)cccc3F)c3c(n2)CCCCCC3)CC1 [Example 55]
response vs control in vivo at 2 mg/kg [1, 4]: 379% | response vs control in vivo at 2 mg/kg [1, 5]: 240%

CCN1CCN(c2cc(-c3ccc(F)cc3)c3c(n2)CCCCCCC3)CC1 [Example 56]
inhibition in vivo at 0.5 mg/kg ([2]; dose 0.5 mg/kg): 85% | response vs control in vivo at 10 mg/kg [1, 3]: 110% | response vs control in vivo at 10 mg/kg [1, 4]: 302% | response vs control in vivo at 10 mg/kg [1, 5]: 249% | response vs control in vivo at 10 mg/kg [1, 6]: 106%

CCN1CCN(c2cc(-c3ccc(F)cc3)c3c(n2)CCC(C)C3)CC1 (stereo not shown) [Example 59]
response vs control in vivo at 2 mg/kg [1, 3]: 106% | response vs control in vivo at 2 mg/kg [1, 4]: 246% | response vs control in vivo at 2 mg/kg [1, 5]: 236% | response vs control in vivo at 2 mg/kg [1, 6]: 126%

CCN1CCN(c2cc(-c3ccc(F)cc3)c3c(n2)CCC(C)(C)C3)CC1 [Example 66]
inhibition in vivo at 1 mg/kg [2]: 95% | response vs control in vivo at 2 mg/kg [1, 3]: 116% | response vs control in vivo at 2 mg/kg [1, 4]: 311% | response vs control in vivo at 2 mg/kg [1, 5]: 308% | response vs control in vivo at 2 mg/kg [1, 6]: 111%

CCN1CCN(c2cc(-c3ccc(F)cc3)c3c(n2)CC(C)(C)CC3C)CC1 (stereo not shown) [Example 68]
response vs control in vivo at 2 mg/kg [1, 4]: 206% | response vs control in vivo at 2 mg/kg [1, 5]: 181%

COCCN1CCN(c2cc(-c3ccc(F)cc3)c3c(n2)CCCCCC3)CC1 [Example 82, 2-[4-(2-Methoxyethyl)-1-piperazinyl]-4-(4-fluorophenyl)-5,6,7,8,9,10-hexahydrocycloocta[b]pyridine dimaleate]
inhibition in vivo at 1 mg/kg [2]: 100%

CC1CN(c2cc(-c3ccc(F)cc3)c3c(n2)CCCCCC3)CC(C)N1 (stereo not shown) [Example 84, 2-(3,5-Dimethyl-1-piperazinyl)-4-(4-fluorophenyl)-5,6,7,8,9,10-hexahydrocycloocta[b]pyridine 1/2 fumarate]
response vs control in vivo at 10 mg/kg [1, 4]: 237% | response vs control in vivo at 10 mg/kg [1, 5]: 216%

Fc1ccc(-c2cc(N3CCNCC3)nc3c2CCCCCC3)cc1 [Example 104, 2-(1-piperazinyl)-4-(4-fluorophenyl)-5,6,7,8,9,10-hexahydrocycloocta[b]pyridine]
response vs control in vivo at 10 mg/kg [1, 3]: 97% | response vs control in vivo at 10 mg/kg [1, 4]: 344% | response vs control in vivo at 10 mg/kg [1, 5]: 247% | response vs control in vivo at 10 mg/kg [1, 6]: 160%

CC1CN(c2cc(-c3ccc(F)cc3)c3c(n2)CCCCCC3)CCN1C (stereo not shown) [Example 116, 2-(3,4-Dimethyl-1-piperazinyl)-4-(4-fluorophenyl)-5,6,7,8,9,10-hexahydrocycloocta[b]pyridine fumarate 1/4 hydrate]
inhibition in vivo at 1 mg/kg [2]: 100%

C[C@@H]1CN(c2cc(-c3ccc(F)cc3)c3c(n2)CCCCCC3)C[C@H](C)N1C [Example 117, 2-(cis-3,5-Dimethyl-4-methyl-1-piperazinyl)-4-(4-fluorophenyl)-5,6,7,8,9,10-hexahydrocycloocta[b]pyridine fumarate]
response vs control in vivo at 10 mg/kg [1, 3]: 100% | response vs control in vivo at 10 mg/kg [1, 4]: 242% | response vs control in vivo at 10 mg/kg [1, 5]: 210% | response vs control in vivo at 10 mg/kg [1, 6]: 133%

CCCCCCN1CCN(c2cc(-c3ccc(F)cc3)c3c(n2)CCCCCC3)CC1 [Example 124]
response vs control in vivo at 10 mg/kg [1, 3]: 107% | response vs control in vivo at 10 mg/kg [1, 4]: 292% | response vs control in vivo at 10 mg/kg [1, 5]: 238% | response vs control in vivo at 10 mg/kg [1, 6]: 102%

CCN1CCN(c2cc(-c3ccc(F)cc3F)c3c(n2)CCCCC3)CC1 [Example 131, 2-(4-ethyl-1-piperazinyl)-4-(2,4-difluorophenyl)-6,7,8,9-tetrahydro-5H-cyclohepta[b]pyridine]
response vs control in vivo at 1 mg/kg [1, 4]: 319% | response vs control in vivo at 1 mg/kg [1, 5]: 224%

CCN1CCN(c2cc(-c3ccc(F)cc3F)c3c(n2)CCC3)CC1 [Example 132, 2-(4-ethyl-1-piperazinyl)-4-(2,4-difluorophenyl)-6,7-dihydro-5H-1-pyrindin]
response vs control in vivo at 10 mg/kg [1, 4]: 333% | response vs control in vivo at 10 mg/kg [1, 5]: 209%

CCN1CCN(c2cc(-c3ccc(F)cc3F)c3c(n2)C2CCC3C2)CC1 (stereo not shown) [Example 135, 2-(4-ethyl-1-piperazinyl)-4-(2,4-difluorophenyl)-5,6,7,8-tetrahydro-5,8-methanoquinoline]
inhibition in vivo at 1 mg/kg [2]: 100%

OCCCN1CCN(c2cc(-c3ccc(F)cc3)c3c(n2)CCCCCC3)CC1 [Example 138, 2-[4-(3-hydroxypropyl)-1-piperazinyl]-4-(4-fluorophenyl)-5,6,7,8,9,10-hexahydrocycloocta[b]pyridine]
response vs control in vivo at 2 mg/kg [1, 4]: 236% | response vs control in vivo at 2 mg/kg [1, 5]: 173%

CC(=O)OCCN1CCN(c2cc(-c3ccc(F)cc3)c3c(n2)CCCCCC3)CC1 [Example 139, 2-[4-(2-acetoxyethyl)-1-piperazinyl]-4-(4-fluorophenyl)-5,6,7,8,9,10-hexahydrocycloocta[b]pyridine]
response vs control in vivo at 10 mg/kg [1, 4]: 267% | response vs control in vivo at 10 mg/kg [1, 5]: 206%
